Test results taken from article PMC11868595, “Safety, pharmacokinetics and efficacy of HA121-28 in patients with advanced solid tumors and RET fusion-positive non-small-cell lung cancer: a multicenter, open-label, single-arm phase 1/2 trial” (Signal Transduction and Targeted Therapy, 2025).

Tested on: patients with advanced solid tumors
Assay: Phase 1 trial: adverse events (CTCAE), DLT and MTD
Assay type: in vivo, human
Protocol: The phase 1 trial was a two-part, multicenter, open-label, nonrandomized study to evaluate the safety and preliminary efficacy of HA121-28.
Safety, tolerability, and PK of HA121-28 was assessed in dose-escalation part. The single-patient accelerated titration was carried out at 25 mg and 50 mg; then, the dose escalation proceeded according to a “3 + 3” design in dose range of 100 to 800 mg. Escalation to a higher dose level was considered by the satisfactory review of safety results from the previous lower dose during the first cycle.
The dose-expansion part aims to further access the safety and efficacy of HA121-28 at the selected doses based on data from the dose-escalation part. The RP2D was determined by investigators in view of a thorough review of safety, PK, and efficacy results.
In phase 1 trial, during the dose-escalation part, patients first administered HA121-28 in a single ascending dose under the fasted state, then followed up for seven days. Then, patients received ascending doses of HA121-28 (q.d.) on a 21-day on and 7-day off treatment scheme for a 28-day cycle. For patients deemed beneficial from the treatment by investigators, treatment could remain until disease progression, or they discontinued from the study. In the dose-expansion part of phase 1, as well as phase 2, patients received HA121-28 (q.d.) at the selected doses on a 21-day on and 7-day off treatment scheme until disease progression, or they discontinued from the study.
Treatment-emergent adverse events (TEAEs) were documented during the entire study period. The predefined adverse event of special interest (AESI) was ≥ grade 3 prolonged QT interval. Tumor imaging was performed using contrast-enhanced computed tomography or magnetic resonance imaging at screening, Day 28 of the first cycle, then approximately every eight weeks till the end of the study for phase 1; in phase 2, imaging was scheduled at screening, and every eight weeks during the first 40 weeks, followed by every 12 weeks for the rest of the study period. RECIST 1.1 was used by the independent review committee or investigators for assessment of tumor response. After the original assessment, a repeated assessment was required around four weeks later to confirm a complete or partial response.
The primary endpoints of phase 1 were to investigate the MTD, dose-limiting toxicities, and the incidence and severity of TEAEs. Each TEAE was graded according to the Common Terminology Criteria for Adverse Events (CTCAE, version 5.0) and coded by Medical Dictionary for Regulatory Activities (MedDRA, version 21.0). The secondary endpoints included calculating PK parameters, assessing the ORR and DCR at the recommended dose by investigators as per RECIST 1.1. The exploratory endpoint was PFS.
If grade 2 or higher toxicity related to the study drug occurs in Groups 1 and 2 (as determined by the investigator), dose escalation will proceed using a 3+3 design starting from that dose level. If no DLT is observed at the 800 mg/d dose level after dose escalation, a meeting of investigators will be convened to decide whether to proceed with further dose escalation based on the available PK data, safety, and tolerability information.
5. Definition of DLT and MTD
The following events related to the study drug (including those that are definitely related, highly likely to be related, and possibly related):
(1) Grade 4 hematologic toxicity or grade 3 neutropenia accompanied by a fever of 38.5℃ or higher, or grade 3 thrombocytopenia accompanied by severe bleeding.
(2) Patients who discontinued the medication for more than 7 days due to unresolved toxicity reactions or who discontinued the medication more than twice due to toxicity […]
(3) In the context of supportive treatment, diarrhea of grade 2 lasting more than 7 days, or grade 3 diarrhea lasting more than 3 days.

COc1cc2c(Nc3ccc(Br)cc3F)ncnc2cc1OCCCCN(C)C.Cl.Cl [HA121-28, N-(4-bromo-2-fluorophenyl)-7-(4-(dimethylamino)butoxy)-6-methoxy quinazolin-4-amine dihydrochloride]
36.7%: incidence of ≥ grade-3 TEAEs (450 mg/day)
68.8%: incidence of ≥ grade-3 TEAEs (600 mg/day)
two: patients with dose-limiting toxicities (800 mg (q.d.), grade-3 decreased appetite, grade-3 prolonged QT interval)
1 (25.0) No. (%): Serious TEAE: Any (Phase 1, 300 mg (N=4)) | Serious TEAE: Aortic intramural hematoma (Phase 1, 300 mg (N=4))
1 (1.3) No. (%): Serious TEAE: Acute cholecystitis (Phase 1, 450 mg (N=79))
0 No. (%): Serious TEAE: ALT increased (Phase 1, 300 mg (N=4)) | Serious TEAE: AST increased (Phase 1, 300 mg (N=4)) | Serious TEAE: Abdominal Pain (Phase 1, 300 mg (N=4)) | Serious TEAE: Abdominal distension (Phase 1, 300 mg (N=4)) | Serious TEAE: Acute cholecystitis (Phase 1, 300 mg (N=4)) | Serious TEAE: Acute pancreatitis (Phase 1, 300 mg (N=4)) | Serious TEAE: Anal abscess (Phase 1, 300 mg (N=4)) | Serious TEAE: Arrhythmia (Phase 1, 300 mg (N=4)) | Serious TEAE: Blood bilirubin increased (Phase 1, 300 mg (N=4)) | Serious TEAE: Blood creatinine increased (Phase 1, 300 mg (N=4)) | Serious TEAE: COVID-19 (Phase 1, 300 mg (N=4)) | Serious TEAE: Cardiac tamponade (Phase 1, 300 mg (N=4)) | Serious TEAE: Coronary artery atherosclerosis (Phase 1, 300 mg (N=4)) | Serious TEAE: Death (Phase 1, 300 mg (N=4)) | Serious TEAE: Diarrhea (Phase 1, 300 mg (N=4)) | Serious TEAE: Drug eruption (Phase 1, 300 mg (N=4)) | Serious TEAE: Dyspnea (Phase 1, 300 mg (N=4)) | Serious TEAE: Embolism (Phase 1, 300 mg (N=4)) | Serious TEAE: Erythema multiforme (Phase 1, 300 mg (N=4)) | Serious TEAE: Headache (Phase 1, 300 mg (N=4)) | Serious TEAE: Hemoptysis (Phase 1, 300 mg (N=4)) | Serious TEAE: Hydronephrosis (Phase 1, 300 mg (N=4)) | Serious TEAE: Hypertension (Phase 1, 300 mg (N=4)) | Serious TEAE: Hypoalbuminemia (Phase 1, 300 mg (N=4)) | Serious TEAE: Intestinal obstruction (Phase 1, 300 mg (N=4)) | Serious TEAE: Intra-abdominal fluid collection (Phase 1, 300 mg (N=4)) | Serious TEAE: Intracranial tumor hemorrhage (Phase 1, 300 mg (N=4)) | Serious TEAE: Liver injury (Phase 1, 300 mg (N=4)) | Serious TEAE: Lung adenocarcinoma (Phase 1, 300 mg (N=4)) | Serious TEAE: Malignant neoplasm progression (Phase 1, 300 mg (N=4)) | Serious TEAE: Multiple organ dysfunction syndrome (Phase 1, 300 mg (N=4)) | Serious TEAE: Nausea (Phase 1, 300 mg (N=4)) | Serious TEAE: Nephrolithiasis (Phase 1, 300 mg (N=4)) | Serious TEAE: Platelet counts decreased (Phase 1, 300 mg (N=4)) | Serious TEAE: Pleural effusion (Phase 1, 300 mg (N=4)) | Serious TEAE: Pneumonia (Phase 1, 300 mg (N=4)) | Serious TEAE: Pneumonitis (Phase 1, 300 mg (N=4)) | Serious TEAE: Prolonged QT interval (Phase 1, 300 mg (N=4)) | Serious TEAE: Pulmonary embolism (Phase 1, 300 mg (N=4)) | Serious TEAE: Pyrexia (Phase 1, 300 mg (N=4)) | Serious TEAE: Rash (Phase 1, 300 mg (N=4)) | Serious TEAE: Rectal hemorrhage (Phase 1, 300 mg (N=4)) | Serious TEAE: Respiratory failure (Phase 1, 300 mg (N=4)) | Serious TEAE: Seizure (Phase 1, 300 mg (N=4)) | Serious TEAE: Septic shock (Phase 1, 300 mg (N=4)) | Serious TEAE: Sudden cardiac arrest (Phase 1, 300 mg (N=4)) | Serious TEAE: Sudden death (Phase 1, 300 mg (N=4)) | Serious TEAE: Upper respiratory tract infection (Phase 1, 300 mg (N=4)) | Serious TEAE: Ventricular tachycardia (Phase 1, 300 mg (N=4)) | Serious TEAE: Vomiting (Phase 1, 300 mg (N=4)) | Serious TEAE: Weight loss (Phase 1, 300 mg (N=4)) | Serious TRAE: ALT increased (Phase 1, 300 mg (N=4)) | Serious TRAE: AST increased (Phase 1, 300 mg (N=4)) | Serious TRAE: Abdominal Pain (Phase 1, 300 mg (N=4)) | Serious TRAE: Abdominal distension (Phase 1, 300 mg (N=4)) | Serious TRAE: Acute cholecystitis (Phase 1, 300 mg (N=4)) | Serious TRAE: Acute pancreatitis (Phase 1, 300 mg (N=4)) | Serious TRAE: Anal abscess (Phase 1, 300 mg (N=4)) | Serious TRAE: Any (Phase 1, 300 mg (N=4)) | Serious TRAE: Aortic intramural hematoma (Phase 1, 300 mg (N=4)) | Serious TRAE: Arrhythmia (Phase 1, 300 mg (N=4)) | Serious TRAE: Blood bilirubin increased (Phase 1, 300 mg (N=4)) | Serious TRAE: Blood creatinine increased (Phase 1, 300 mg (N=4)) | Serious TRAE: COVID-19 (Phase 1, 300 mg (N=4)) | Serious TRAE: Cardiac tamponade (Phase 1, 300 mg (N=4)) | Serious TRAE: Coronary artery atherosclerosis (Phase 1, 300 mg (N=4)) | Serious TRAE: Death (Phase 1, 300 mg (N=4)) | Serious TRAE: Diarrhea (Phase 1, 300 mg (N=4)) | Serious TRAE: Drug eruption (Phase 1, 300 mg (N=4)) | Serious TRAE: Dyspnea (Phase 1, 300 mg (N=4)) | Serious TRAE: Embolism (Phase 1, 300 mg (N=4)) | Serious TRAE: Erythema multiforme (Phase 1, 300 mg (N=4)) | Serious TRAE: Headache (Phase 1, 300 mg (N=4)) | Serious TRAE: Hemoptysis (Phase 1, 300 mg (N=4)) | Serious TRAE: Hydronephrosis (Phase 1, 300 mg (N=4)) | Serious TRAE: Hypertension (Phase 1, 300 mg (N=4)) | Serious TRAE: Hypoalbuminemia (Phase 1, 300 mg (N=4)) | Serious TRAE: Intestinal obstruction (Phase 1, 300 mg (N=4)) | Serious TRAE: Intra-abdominal fluid collection (Phase 1, 300 mg (N=4)) | Serious TRAE: Intracranial tumor hemorrhage (Phase 1, 300 mg (N=4)) | Serious TRAE: Liver injury (Phase 1, 300 mg (N=4)) | Serious TRAE: Lung adenocarcinoma (Phase 1, 300 mg (N=4)) | Serious TRAE: Malignant neoplasm progression (Phase 1, 300 mg (N=4)) | Serious TRAE: Multiple organ dysfunction syndrome (Phase 1, 300 mg (N=4)) | Serious TRAE: Nausea (Phase 1, 300 mg (N=4)) | Serious TRAE: Nephrolithiasis (Phase 1, 300 mg (N=4)) | Serious TRAE: Platelet counts decreased (Phase 1, 300 mg (N=4)) | Serious TRAE: Pleural effusion (Phase 1, 300 mg (N=4)) | Serious TRAE: Pneumonia (Phase 1, 300 mg (N=4)) | Serious TRAE: Pneumonitis (Phase 1, 300 mg (N=4)) | Serious TRAE: Prolonged QT interval (Phase 1, 300 mg (N=4)) | Serious TRAE: Pulmonary embolism (Phase 1, 300 mg (N=4)) | Serious TRAE: Pyrexia (Phase 1, 300 mg (N=4)) | Serious TRAE: Rash (Phase 1, 300 mg (N=4)) | Serious TRAE: Rectal hemorrhage (Phase 1, 300 mg (N=4)) | Serious TRAE: Respiratory failure (Phase 1, 300 mg (N=4)) | Serious TRAE: Seizure (Phase 1, 300 mg (N=4)) | Serious TRAE: Septic shock (Phase 1, 300 mg (N=4)) | Serious TRAE: Sudden cardiac arrest (Phase 1, 300 mg (N=4)) | Serious TRAE: Sudden death (Phase 1, 300 mg (N=4)) | Serious TRAE: Upper respiratory tract infection (Phase 1, 300 mg (N=4)) | Serious TRAE: Ventricular tachycardia (Phase 1, 300 mg (N=4)) | Serious TRAE: Vomiting (Phase 1, 300 mg (N=4)) | Serious TRAE: Weight loss (Phase 1, 300 mg (N=4)) | Serious TEAE: ALT increased (Phase 1, 450 mg (N=79)) | Serious TEAE: AST increased (Phase 1, 450 mg (N=79)) | Serious TEAE: Abdominal Pain (Phase 1, 450 mg (N=79)) | Serious TEAE: Abdominal distension (Phase 1, 450 mg (N=79))
